In patent US6355687B1, “Cosmetic compositions containing substituted iminodibenzyl or fluorene derivatives” (Unilever Home and Personal Care USA, division of Conopco, …, priority 2000, dated 2002):
Where “and” joins values, the source holds several entries; their conditions need not be identical. Equal entries are not always repeated. Where two headings read alike, the source gives them in different places.

Tested on: human sebocytes
Assay: Sebum suppression: 14C-acetate incorporation in cultured human sebocytes, test agent alone or with retinol
Type: cell-based
Conditions: for activity at 1 µM / activity at 10 µM: read-out: % of Control
Method: Compounds A through H were tested for their potential to suppress sebum expression, alone or in the presence of a retinoid.
Secondary cultures of human sebocytes obtained from an adult […] were grown in 48-well tissue culture plates (Costar Corp.; Cambridge, Mass.) or 96-well tissue culture plates (Packard Co.; Meriden, Conn.) until confluent. Sebocyte growth medium consisted of Clonetics Keratinocyte Basal Medium (KBM) supplemented with 14 μg/ml bovine pituitary extract, 0.4 μg/ml hydrocortisone, 5 μg/ml insulin, 10 ng/ml epidermal growth factor, 1.2×10−10 M cholera toxin, 100 units/ml penicillin, and 100 μg/ml streptomycin. All cultures were incubated at 37° C. in the presence of 7.5% CO2. Medium was changed three times per week.
On the day of experimentation, the growth medium was removed and the sebocytes washed three times with sterile Dulbecco's Modified Eagle Medium (DMEM; phenol red free). Fresh DMEM was added to each sample (duplicates, triplicates, or quadruplicates depending on the experiment) with 5 microliter of test agent solubilized in ethanol either alone or in the presence of one or 10 micromolar of retinol. Controls consisted of addition of ethanol alone, retinol alone, or phenol red, which has estrogen-like activity and is included as a positive control.
Each plate was returned to the incubator for 20 hours followed by the addition of 14C-acetate buffer (5 mM final concentration, 56 mCi/mmol specific activity). Sebocytes were returned to the incubator for four hours after which each culture was rinsed three times with phosphate buffered saline to remove unbound label. Radioactive label remaining in the sebocytes was harvested and counted using a Beckman scintillation counter.

[1] = 10 μM test compound + 10 μM Retinol
[2] = Homo sapiens, 1 μM test compound + 1 μM Retinol
[3] = Homo sapiens, 1 μM test compound + 10 μM Retinol
[4] = Homo sapiens, 1 μM test compound alone
[5] = Homo sapiens, 10 μM test compound + 1 μM Retinol
[6] = Homo sapiens, 10 μM test compound + 10 μM Retinol
[7] = Homo sapiens, 10 μM test compound alone

| Structure (SMILES) | activity at 1 µM [2] [%] | activity at 1 µM [3] [%] | activity at 1 µM [4] [%] | activity at 10 µM [5] [%] | activity at 10 µM [6] [%] | activity at 10 µM [7] [%] | other results |
| --- | --- | --- | --- | --- | --- | --- | --- |
| CC(O)c1cccc(NC(=O)N2c3ccccc3CCc3ccccc32)c1 (stereo not drawn) [Compound A] |  |  |  |  |  |  | % of Control (1 μM test compound + 1 μM Retinol): 86.2%; % of Control (10 μM test compound + 1 μM Retinol): 85.8% and 45.9%; % of Control [1]: 80.1% and 44.3%; % of Control (10 μM test compound alone, 10 µM): 88.8% |
| O=C(Nc1ccc(OC(F)(F)F)cc1)N1c2ccccc2CCc2ccccc21 [Compound B] | 86 | 74.2 | 88.9 | 96 | 111 | 82 |  |
| O=C(Nc1ccc(O)cc1)N1c2ccccc2CCc2ccccc21 [Compound C] | 83.7 | 70.3 | 91.4 | 27.5 | 1.4 | 41.5 | sebum suppressive activity when combined with retinol (in the presence of retinol / a retinoid, summary in words): improved activity |
| Cc1c(Cl)cccc1NC(=O)N1c2ccccc2CCc2ccccc21 [Compound D] | 75.4 | 74.3 | 80.1 | 105 | 88.7 | 101 | % of Control (100 μM test compound + 1 μM Retinol): 1.1%; % of Control (100 μM test compound + 10 μM Retinol): 0.5%; % of Control (100 μM test compound alone): 1.8% |
| O=C(CC1c2ccccc2-c2ccccc21)N1CCC(O)(c2ccc(Cl)cc2)CC1 [Compound F] | 35.7 | 29.3 |  | 15.3 |  |  | % of Control (10 μM test compound alone): 26.7% and 75.0% |
| O=C(CC1c2ccccc2-c2ccccc21)N1CCC(O)(c2ccccc2)CC1 [Compound G] | 114 |  |  | 65.3 | 63.8 | 63 | % of Control (1 μM test compound + 10 μM Retinol): 80.2% and 102.9%; % of Control (1 μM test compound alone, 1 µM): 77.3% and 105.2%; % of Control [1]: 75.4% |
| CCCN(CCO)C(=O)CC1c2ccccc2-c2ccccc21 [Compound H] | 76.8 | 68 | 65.9 | 71 | 73.5 | 71.1 |  |
| O=S1(=O)OC(c2ccc(O)cc2)(c2ccc(O)cc2)c2ccccc21 [Phenol Red, phenol red, reference compound] |  |  |  |  |  |  | % of Control (28 μM Phenol Red (positive control)): 84.4%; activity at 28 µM (Homo sapiens, 28 μM Phenol Red (positive control)): 67.6% |
| CC1=C(/C=C/C(C)=C/C=C/C(C)=C/CO)C(C)(C)CCC1 [Retinol, retinol, reference compound] |  |  |  |  |  |  | % of Control (1 μM Retinol alone): 98.4% and 99.9% and 85.5% and 99.3%; % of Control (10 μM Retinol alone): 101.8% and 111.7% and 100.1% and 81.8% and 104.8% and 95.2%; sebum suppressive activity (alone, summary in words): inactive |
